Experimental data published in US12440833B2, “Sample containers adapted for acoustic ejections and sample preservation and methods thereof” (priority 2011, dated 2025).
Where two headings read alike, the source gives them in different places.

Key:
TPCK trypsin [1] = target: T1, TPCK trypsin (Bos taurus, UniProt P00760); assay type: biochemical; settings: for average fluorescence of wells with trypsin exposed to tubes with immobilized ligand: 12.5 ng trypsin per tube, 120 minutes at room temperature
T1 construct: purchased Thermo Scientific Pierce 23266
T1 sequence (P00760 24-246): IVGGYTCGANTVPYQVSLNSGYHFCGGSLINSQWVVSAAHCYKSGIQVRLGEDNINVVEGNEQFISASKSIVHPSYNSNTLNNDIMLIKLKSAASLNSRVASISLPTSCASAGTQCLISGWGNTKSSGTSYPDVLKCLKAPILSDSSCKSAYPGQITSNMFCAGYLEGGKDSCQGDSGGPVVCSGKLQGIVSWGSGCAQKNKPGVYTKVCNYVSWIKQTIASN
Procedure: Protease activity and the inhibition thereof were measured with a Fluorescent Protease Assay Kit (Thermo Scientific Pierce, catalog number 23266). TRIS-buffered saline (TBS, 25 mM Tris, 0.15 M NaCl, pH 7.2) was reconstituted from dry solids in the kit with deionized water. Trypsin stock solution was freshly prepared by dissolving TPCK trypsin from kit with 1 mL deionized water to make a 50 mg/mL solution. […] Aliquots of 10 μL were stored at −60° C. Individual aliquots of the stock solution were diluted in 1.0 mL of TBS (0.5 mg/mL), and 10 μL of this solution was further diluted in 10 mL of TBS (0.5 μg/mL). This solution was serially diluted 1:1 with TBS to create a trypsin solution of 62.5 ng/mL. The trypsin solution was kept in an ice bath until use. 200 μL of the diluted trypsin (12.5 ng) was added to each prepared polypropylene tube. The solution was aspirated and re-dispensed three times in each tube to assure complete mixing and contact of the solution with the derivatized internal walls of the tubes. A new disposable tip was used for each transfer. After incubation at room temperature for 120 minutes, 100 μL of the trypsin solution from each tube was placed into individual wells of a 96-well, black, flat-bottomed plate (Greiner Bio-one, catalog number 655076, Monroe, N.C.). […] The plate was incubated at room temperature for 95 minutes. […] Increased fluorescence is indicative of trypsin-mediated digestion of the added FTC-casein solution via the decrease of FRET-based fluorescence quenching that exists in the intact protein.

TPCK trypsin [2] = target: T1, TPCK trypsin; assay type: biochemical; settings: for average fluorescence of wells with trypsin exposed to tubes with immobilized ligand: 12.5 ng trypsin per tube, 120 minutes at room temperature; remark: listed apart in the source
Procedure: Protease activity and the inhibition thereof were measured with a Fluorescent Protease Assay Kit (Thermo Scientific Pierce, catalog number 23266). TRIS-buffered saline (TBS, 25 mM Tris, 0.15 M NaCl, pH 7.2) was reconstituted from dry solids in the kit with deionized water. Trypsin stock solution was freshly prepared by dissolving TPCK trypsin from kit with 1 mL deionized water to make a 50 mg/mL solution. Aliquots of 10 μL were stored at −60° C. Individual aliquots of the stock solution were diluted in 1.0 mL of TBS (0.5 mg/mL), and 10 μL of this solution was further diluted in 10 mL of TBS (0.5 μg/mL). This solution was serially diluted 1:1 with TBS to create a trypsin solution of 62.5 ng/mL. The trypsin solution was kept in an ice bath until use. 200 μL of the diluted trypsin (12.5 ng) was added to each prepared polypropylene tube. The solution was aspirated and re-dispensed three times in each tube to assure complete mixing and contact of the solution with the derivatized internal walls of the tubes. A new disposable tip was used for each transfer. After incubation at room temperature for 120 minutes, 100 μL of the trypsin solution from each tube was placed into individual wells of a 96-well, black, flat-bottomed plate (Greiner Bio-one, catalog number 655076, Monroe, N.C.). FTC-casein—(casein protein modified by the addition of fluorescein isothiocyanate, a part of the Fluorescent Protease Assay Kit) solution in TBS buffer was freshly prepared and 100 μL of this solution was added to each well and mixed via aspiration and dispense. The plate was incubated at room temperature for 95 minutes. The fluorescence of the samples in the 96-well plate was measured on a SpectraFluor Plus fluorescence spectrometer (Tecan, Mannedorf, Switzerland) 5 minutes after the solution was added and additionally after 10, 20, 40, 60 and 95 minutes. Increased fluorescence is indicative of trypsin-mediated digestion of the added FTC-casein solution via the decrease of FRET-based fluorescence quenching that exists in the intact protein.

[3] = 0.1 mM TLCK in the well (not immobilized), after 20 minutes, background 5382 RFU
[4] = Example A, ligand immobilized on tube wall, background 5382 RFU
[5] = Example B, ligand immobilized on tube wall, background 5382 RFU

Compound	fluorescence of wells that contained FTC-casein, trypsin and inhibitor (TPCK trypsin [1]; [3]) [RFU]	average fluorescence of wells with trypsin exposed to tubes with immobilized ligand (TPCK trypsin [1]; [4]) [RFU]	inhibition of trypsin activity (TPCK trypsin [1]; Example A, ligand immobilized on tube wall, trypsin exposed 120 minutes at room temperature) [%]	fluorescence of wells that contained FTC-casein, trypsin and inhibitor (TPCK trypsin [2]; [3]) [RFU]	average fluorescence of wells with trypsin exposed to tubes with immobilized ligand (TPCK trypsin [2]; [5]) [RFU]	inhibition of trypsin activity (TPCK trypsin [2]; Example B, ligand immobilized on tube wall, trypsin exposed 120 minutes at room temperature) [%]
Cc1ccc(S(=O)(=O)N[C@@H](CCCCN)C(=O)CCl)cc1.Cl [TLCK Ligand, N-alpha-tosyl-L-lysine chloromethyl ketone hydrochloride]	6841	15521	35	6841	13386	48
NCCCO [AP Ligand, 3-amino-1-propanol]	–	21289	–	–	20847	–
